Measured values from ChEMBL document CHEMBL1153480, “Study on the potential anti-cancer activity of phosphonium and ammonium-based ionic liquids” (2009).

How the values were obtained:
Assay type in all cases: functional
LOX IMVI = experiment: cells; settings: Homo sapiens
Description: Growth inhibition of human LOXIMVI cells assessed as drug level required for 50% reduction in net protein increase by SRB assay relative to control

HCC 2998 [1] = experiment: cells; settings: Homo sapiens
Description: Growth inhibition of human HCC2998 cells assessed as drug level required for 50% reduction in net protein increase by SRB assay relative to control

NCI-H522 [2] = experiment: Cytotoxicity against human NCI-H522 cells by SRB assay; settings: read-out: LC50 (the source's name)
SNB-75 [3] = experiment: cells; settings: Homo sapiens
Description: Growth inhibition of human SNB75 cells assessed as drug level required for 50% reduction in net protein increase by SRB assay relative to control

T47D [4] = experiment: cells; settings: Homo sapiens
Description: Growth inhibition of human T47D cells assessed as cell growth at 10 uM by SRB assay

SNB-19 [5] = experiment: cells; settings: Homo sapiens
Description: Growth inhibition of human SNB19 cells assessed as cell growth at 10 uM by SRB assay

HOP-92 [6] = experiment: cells; settings: Homo sapiens
Description: Growth inhibition of human HOP92 cells assessed as drug level required for 50% reduction in net protein increase by SRB assay relative to control

ACHN = experiment: cells; settings: Homo sapiens
Description: Growth inhibition of human ACHN cells assessed as drug level required for 50% reduction in net protein increase by SRB assay relative to control

COLO 205 [7] = experiment: cells; settings: Homo sapiens
Description: Growth inhibition of human COLO205 cells assessed as drug level required for 50% reduction in net protein increase by SRB assay relative to control

MOLT-4 [8] = experiment: cells; settings: Homo sapiens
Description: Growth inhibition of human MOLT4 cells assessed as cell growth at 10 uM by SRB assay

SNB-19 [9] = experiment: Cytotoxicity against human SNB19 cells by SRB assay; settings: read-out: LC50 (the source's name)
OVCAR-3 = experiment: Cytotoxicity against human OVCAR-3 cells by SRB assay; settings: read-out: LC50 (the source's name)
cells [10] = settings: Homo sapiens, CAKI
Description: Growth inhibition of human CAKI cells assessed as drug level required for 50% reduction in net protein increase by SRB assay relative to control

OVCAR-8 [11] = experiment: cells; settings: Homo sapiens
Description: Growth inhibition of human OVCAR8 cells assessed as cell growth at 10 uM by SRB assay

HCT-15 = experiment: cells; settings: Homo sapiens
Description: Growth inhibition of human HCT15 cells assessed as cell growth at 10 uM by SRB assay

NCI-H522 [12] = experiment: cells; settings: Homo sapiens
Description: Growth inhibition of human NCI-H522 cells assessed as cell growth at 10 uM by SRB assay

SR = experiment: Cytotoxicity against human SR cells by SRB assay; settings: read-out: LC50 (the source's name)
UACC-257 = experiment: cells; settings: Homo sapiens
Description: Growth inhibition of human UACC257 cells assessed as drug level required for 50% reduction in net protein increase by SRB assay relative to control

NCI-H460 [13] = experiment: cells; settings: Homo sapiens
Description: Growth inhibition of human NCI-H460 cells assessed as drug level required for 50% reduction in net protein increase by SRB assay relative to control

TK-10 [14] = experiment: cells; settings: Homo sapiens
Description: Growth inhibition of human TK10 cells assessed as cell growth at 10 uM by SRB assay

U-251 [15] = experiment: cells; settings: Homo sapiens
Description: Growth inhibition of human U251 cells assessed as cell growth at 10 uM by SRB assay

MDA-MB-231 [16] = experiment: cells; settings: Homo sapiens
Description: Growth inhibition of human MDA-MB-231 cells assessed as cell growth at 10 uM by SRB assay

UO-31 [17] = experiment: cells; settings: Homo sapiens
Description: Growth inhibition of human UO31 cells assessed as drug level required for 50% reduction in net protein increase by SRB assay relative to control

SK-MEL-2 [18] = experiment: cells; settings: Homo sapiens
Description: Growth inhibition of human SK-MEL-2 cells assessed as drug level required for 50% reduction in net protein increase by SRB assay relative to control

PC-3 [19] = experiment: cells; settings: Homo sapiens
Description: Growth inhibition of human PC3 cells assessed as drug level required for 50% reduction in net protein increase by SRB assay relative to control

KM12 = experiment: cells; settings: Homo sapiens
Description: Growth inhibition of human KM12 cells assessed as cell growth at 10 uM by SRB assay

SK-MEL-5 = experiment: cells; settings: Homo sapiens
Description: Growth inhibition of human SK-MEL-5 cells assessed as drug level required for 50% reduction in net protein increase by SRB assay relative to control

SF-539 = experiment: cells; settings: Homo sapiens
Description: Growth inhibition of human SF539 cells assessed as drug level required for 50% reduction in net protein increase by SRB assay relative to control

SK-MEL-2 [20] = experiment: Cytotoxicity against human SK-MEL-2 cells by SRB assay; settings: read-out: LC50 (the source's name)
RXF 393 = experiment: cells; settings: Homo sapiens
Description: Growth inhibition of human RFX393 cells assessed as drug level required for 50% reduction in net protein increase by SRB assay relative to control

HOP-92 [21] = experiment: cells; settings: Homo sapiens; remark: listed apart in the source
Description: Growth inhibition of human HOP92 cells assessed as cell growth at 10 uM by SRB assay

SNB-75 [22] = experiment: Cytotoxicity against human SNB75 cells by SRB assay; settings: read-out: LC50 (the source's name)
COLO 205 [23] = experiment: cells; settings: Homo sapiens; remark: listed apart in the source
Description: Growth inhibition of human COLO205 cells assessed as cell growth at 10 uM by SRB assay

A549 = experiment: Cytotoxicity against human A549 cells by SRB assay; settings: read-out: LC50 (the source's name)
PC-3 [24] = experiment: Cytotoxicity against human PC3 cells by SRB assay; settings: read-out: LC50 (the source's name)
cells [25] = settings: Homo sapiens, Hs-578T
Description: Growth inhibition of human Hs 578T cells assessed as drug level required for 50% reduction in net protein increase by SRB assay relative to control

CCRF-CEM = experiment: cells; settings: Homo sapiens
Description: Growth inhibition of human CCRF-CEM cells assessed as drug level required for 50% reduction in net protein increase by SRB assay relative to control

BT-549 = experiment: Cytotoxicity against human BT549 cells by SRB assay; settings: read-out: LC50 (the source's name)
U-251 [26] = experiment: cells; settings: Homo sapiens; remark: listed apart in the source
Description: Growth inhibition of human U251 cells assessed as drug level required for 50% reduction in net protein increase by SRB assay relative to control

MDA-MB-435 [27] = experiment: Cytotoxicity against human MDA-MB-435 cells by SRB assay; settings: read-out: LC50 (the source's name)
SK-MEL-2 [28] = experiment: cells; settings: Homo sapiens; remark: listed apart in the source
Description: Growth inhibition of human SK-MEL-2 cells assessed as cell growth at 10 uM by SRB assay

cells [29] = settings: Homo sapiens, Hs-578T; read-out: LC50 (the source's name)
Description: Cytotoxicity against human Hs 578T cells by SRB assay

UACC-62 = experiment: cells; settings: Homo sapiens
Description: Growth inhibition of human UACC62 cells assessed as drug level required for 50% reduction in net protein increase by SRB assay relative to control

MDA-MB-231 [30] = experiment: cells; settings: Homo sapiens; remark: listed apart in the source
Description: Growth inhibition of human MDA-MB-231 cells assessed as drug level required for 50% reduction in net protein increase by SRB assay relative to control

HOP-62 = experiment: cells; settings: Homo sapiens
Description: Growth inhibition of human HOP62 cells assessed as cell growth at 10 uM by SRB assay

NCI-H322M [31] = experiment: cells; settings: Homo sapiens
Description: Growth inhibition of human NCI-H322M cells assessed as cell growth at 10 uM by SRB assay

SK-MEL-28 [32] = experiment: cells; settings: Homo sapiens
Description: Growth inhibition of human SK-MEL-28 cells assessed as drug level required for 50% reduction in net protein increase by SRB assay relative to control

K562 = experiment: Cytotoxicity against human K562 cells by SRB assay; settings: read-out: LC50 (the source's name)
MCF7 = experiment: Cytotoxicity against human MCF7 cells by SRB assay; settings: read-out: LC50 (the source's name)
HT-29 [33] = experiment: cells; settings: Homo sapiens
Description: Growth inhibition of human HT-29 cells assessed as drug level required for 50% reduction in net protein increase by SRB assay relative to control

MOLT-4 [34] = experiment: Cytotoxicity against human MOLT4 cells by SRB assay; settings: read-out: LC50 (the source's name)
UO-31 [35] = experiment: cells; settings: Homo sapiens; remark: listed apart in the source
Description: Growth inhibition of human UO31 cells assessed as cell growth at 10 uM by SRB assay

OVCAR-8 [36] = experiment: cells; settings: Homo sapiens; remark: listed apart in the source
Description: Growth inhibition of human OVCAR8 cells assessed as drug level required for 50% reduction in net protein increase by SRB assay relative to control

SK-MEL-28 [37] = experiment: Cytotoxicity against human SK-MEL-28 cells by SRB assay; settings: read-out: LC50 (the source's name)
HT-29 [38] = experiment: cells; settings: Homo sapiens; remark: listed apart in the source
Description: Growth inhibition of human HT-29 cells assessed as cell growth at 10 uM by SRB assay

OVCAR-8 [39] = experiment: Cytotoxicity against human OVCAR8 cells by SRB assay; settings: read-out: LC50 (the source's name)
NCI-H522 [40] = experiment: cells; settings: Homo sapiens; remark: listed apart in the source
Description: Growth inhibition of human NCI-H522 cells assessed as drug level required for 50% reduction in net protein increase by SRB assay relative to control

MOLT-4 [41] = experiment: cells; settings: Homo sapiens; remark: listed apart in the source
Description: Growth inhibition of human MOLT4 cells assessed as drug level required for 50% reduction in net protein increase by SRB assay relative to control

T47D [42] = experiment: cells; settings: Homo sapiens; remark: listed apart in the source
Description: Growth inhibition of human T47D cells assessed as drug level required for 50% reduction in net protein increase by SRB assay relative to control

TK-10 [43] = experiment: cells; settings: Homo sapiens; remark: listed apart in the source
Description: Growth inhibition of human TK10 cells assessed as drug level required for 50% reduction in net protein increase by SRB assay relative to control

HCC 2998 [44] = experiment: Cytotoxicity against human HCC2998 cells by SRB assay; settings: read-out: LC50 (the source's name)
HL-60(TB) = experiment: cells; settings: Homo sapiens
Description: Growth inhibition of human HL-60(TB) cells assessed as cell growth at 10 uM by SRB assay

MDA-MB-468 [45] = experiment: Cytotoxicity against human MDA-MB-468 cells by SRB assay; settings: read-out: LC50 (the source's name)
MDA-MB-468 [46] = experiment: cells; settings: Homo sapiens
Description: Growth inhibition of human MDA-MB-468 cells assessed as drug level required for 50% reduction in net protein increase by SRB assay relative to control

T47D [47] = experiment: Cytotoxicity against human T47D cells by SRB assay; settings: read-out: LC50 (the source's name)
[48] = Cytotoxicity against human CAKI cells by SRB assay; settings: read-out: LC50 (the source's name)
Malme-3M = experiment: Cytotoxicity against human MALME-3M cells by SRB assay; settings: read-out: LC50 (the source's name)
NCI-H322M [49] = experiment: cells; settings: Homo sapiens; remark: listed apart in the source
Description: Growth inhibition of human NCI-H322M cells assessed as drug level required for 50% reduction in net protein increase by SRB assay relative to control

NCI-H460 [50] = experiment: cells; settings: Homo sapiens; remark: listed apart in the source
Description: Growth inhibition of human NCI-H460 cells assessed as cell growth at 10 uM by SRB assay

MDA-MB-435 [51] = experiment: cells; settings: Homo sapiens
Description: Growth inhibition of human MDA-MB-435 cells assessed as drug level required for 50% reduction in net protein increase by SRB assay relative to control

DU-145 = experiment: cells; settings: Homo sapiens
Description: Growth inhibition of human DU145 cells assessed as drug level required for 50% reduction in net protein increase by SRB assay relative to control

CCCCCCCCCCCCCCCCCCPCCCCCCCCCCCCCC (stereo unspecified) [MONO(OCTADECYL(TETRADECYL)PHOSPHONIUM) MONO(HEXAFLUOROPHOSPHATE(V)) MONO(TETRAFLUOROBORATE)]
GI50 (LOX IMVI): 0.05 µM
GI50 (HCC 2998 [1]): 0.297 µM
CC50 (NCI-H522 [2]): > 100 µM
GI50 (SNB-75 [3]): 0.223 µM
growth at 10 µM (T47D [4]): -38.5%
growth at 10 µM (SNB-19 [5]): -44.9%
GI50 (HOP-92 [6]): 0.038 µM
GI50 (ACHN): 0.244 µM
GI50 (COLO 205 [7]): 0.243 µM
growth at 10 µM (MOLT-4 [8]): 7.02%
CC50 (SNB-19 [9]): > 100 µM
CC50 (OVCAR-3): > 100 µM
GI50 (cells [10]): 0.35 µM
growth at 10 µM (OVCAR-8 [11]): -18.1%
growth at 10 µM (HCT-15): -35.8%
growth at 10 µM (NCI-H522 [12]): -50.9%
CC50 (SR): > 100 µM
GI50 (UACC-257): 0.272 µM
GI50 (NCI-H460 [13]): 0.346 µM
growth at 10 µM (TK-10 [14]): -75%
growth at 10 µM (U-251 [15]): -6.5%
growth at 10 µM (MDA-MB-231 [16]): -74.5%
GI50 (UO-31 [17]): 0.398 µM
GI50 (SK-MEL-2 [18]): 0.081 µM
GI50 (PC-3 [19]): 0.044 µM
growth at 10 µM (KM12): -52.2%
GI50 (SK-MEL-5): 0.074 µM
GI50 (SF-539): 0.234 µM
CC50 (SK-MEL-2 [20]): > 100 µM
GI50 (RXF 393): 0.352 µM
growth at 10 µM (HOP-92 [21]): -55.5%
CC50 (SNB-75 [22]): > 100 µM
growth at 10 µM (COLO 205 [23]): -6.75%
CC50 (A549): > 100 µM
CC50 (PC-3 [24]): > 100 µM
GI50 (cells [25]): 0.084 µM
GI50 (CCRF-CEM): 0.034 µM
CC50 (BT-549): > 100 µM
GI50 (U-251 [26]): 0.037 µM
CC50 (MDA-MB-435 [27]): > 100 µM
growth at 10 µM (SK-MEL-2 [28]): -64.7%
CC50 (cells [29]): > 100 µM
GI50 (UACC-62): 0.061 µM
GI50 (MDA-MB-231 [30]): 0.107 µM
growth at 10 µM (HOP-62): -65.6%
growth at 10 µM (NCI-H322M [31]): -79.2%
GI50 (SK-MEL-28 [32]): 0.376 µM
CC50 (K562): > 100 µM
CC50 (MCF7): > 100 µM
GI50 (HT-29 [33]): 0.061 µM
CC50 (MOLT-4 [34]): > 100 µM
growth at 10 µM (UO-31 [35]): -44.8%
GI50 (OVCAR-8 [36]): 0.229 µM
CC50 (SK-MEL-28 [37]): > 100 µM
growth at 10 µM (HT-29 [38]): -45%
CC50 (OVCAR-8 [39]): > 100 µM
GI50 (NCI-H522 [40]): 0.158 µM
GI50 (MOLT-4 [41]): 0.09 µM
GI50 (T47D [42]): 0.089 µM
GI50 (TK-10 [43]): 0.234 µM
CC50 (HCC 2998 [44]): > 100 µM
growth at 10 µM (HL-60(TB)): 24.9%
CC50 (MDA-MB-468 [45]): > 100 µM
GI50 (MDA-MB-468 [46]): 0.053 µM
CC50 (T47D [47]): > 100 µM
CC50 [48]: > 100 µM
CC50 (Malme-3M): > 100 µM
GI50 (NCI-H322M [49]): 0.401 µM
growth at 10 µM (NCI-H460 [50]): -41.9%
GI50 (MDA-MB-435 [51]): 0.05 µM
GI50 (DU-145): 0.357 µM
